Series [1] addresses CYP2C9 (Homo sapiens (Human), UniProt P11712). The series is described as follows: Inhibition of CYP2C9 enzymatic activity in human liver microsomes. It counts as in vitro ADME. Particulars: substrate diclofenac. As to the method:
(§1) The inhibition of CYP2C9 and CYP2D6 enzymatic activities by the compounds of the present invention was determined by the following test method.
(§2) • 1. Human liver microsomes (Corning 452117) • 2. NADPH (Solarbio 705Y021) • 3. Positive substrates diclofenac (Sigma SLBV3438), dextromethorphan (TRC 3-EDO-175-1) and midazolam (Cerilliant FE01161704) • 4. Positive inhibitors sulfaphenazole (D. Ehrenstorfer GmbH 109012), quinidine (TCI WEODL-RE) and ketoconazole (Sigma 100M1091V) • 5. AB Sciex Triple Quad 5500 liquid chromatography-mass spectrometry
(§3) 1. Preparation of 100 mM phosphate buffered saline (PBS): 7.098 g of Na2HPO4 was weighed, 500 mL of pure water was added and subjected to ultrasonic dissolution to obtain solution A. 3.400 g of KH2PO4 was weighed, 250 mL of pure water was added and subjected to ultrasonic dissolution to obtain solution B. Solution A was placed on a stirrer and solution B was slowly added until pH reaches 7.4 to prepare 100 mM PBS buffer.
(§4) 2. Preparation of 10 mM NADPH solution with 100 mM PBS buffer. 10 mM stock solution of compounds of the invention was diluted with DMSO to obtain a 200× concentration of compound working solution (6000, 2000, 600, 200, 60, 20, 0 µM). The stock solution of positive inhibitors was diluted with DMSO to obtain a 200× concentration of positive inhibitor working solution (sulfaphenazole, 1000, 300, 100, 30, 10, 3, 0 µM; quinidine/ketoconazole, 100, 30, 10, 3, 1, 0.3, 0 µM). A 200 × concentration of substrate working solution (120 µM of diclofenac, 400 µM of dextromethorphan, and 200 µM of midazolam) was prepared in water, acetonitrile, or acetonitrile/methanol.
(§5) 3. 2 µl of 20 mg/ml liver microsome solution, 1 µl of substrate working solution, 1 µl of compound working solution and 176 µl of PBS buffer were taken, mixed uniformly, and pre-incubated in a 37° C. water bath for 15 minutes. […]
(§6) The IC50 values of the compounds of the present invention against CYP2C9 and CYP2D6 were calculated by Excel XLfit 5.3.1.3.
In general terms: Microsomes from liver hold many membrane-bound enzymes, among them those of drug oxidation.

Series [2] deals with CYP2D6 (Homo sapiens (Human), UniProt P10635). Description: Inhibition of CYP2D6 enzymatic activity in human liver microsomes. It counts as in vitro ADME. Particulars: substrate dextromethorphan. The procedure:
as §1, §2, §3, §4, §5, §6

The target in series [3] is estrogen receptors in MCF7 cells (Homo sapiens (Human), UniProt P03372). Description: Degradation of estrogen receptors in MCF7 cells (in-cell western). As to conditions: for DC50: 24 hours treatment, read-out: ER level DC50; for Dmax: 24 hours, 0.1 µM fulvestrant = 100% degradation control, read-out: Maximum degradation rate. It is filed as cell-based. The procedure: The purpose of the experiment is to determine the degradation activity of the compounds of the present invention on endogenously expressed estrogen receptors in MCF7 cells, and to evaluate the activity of the compounds according to DC50 and maximum degradation efficiency.
Chain of estrogen receptors in MCF7 cells (P03372 whole entry): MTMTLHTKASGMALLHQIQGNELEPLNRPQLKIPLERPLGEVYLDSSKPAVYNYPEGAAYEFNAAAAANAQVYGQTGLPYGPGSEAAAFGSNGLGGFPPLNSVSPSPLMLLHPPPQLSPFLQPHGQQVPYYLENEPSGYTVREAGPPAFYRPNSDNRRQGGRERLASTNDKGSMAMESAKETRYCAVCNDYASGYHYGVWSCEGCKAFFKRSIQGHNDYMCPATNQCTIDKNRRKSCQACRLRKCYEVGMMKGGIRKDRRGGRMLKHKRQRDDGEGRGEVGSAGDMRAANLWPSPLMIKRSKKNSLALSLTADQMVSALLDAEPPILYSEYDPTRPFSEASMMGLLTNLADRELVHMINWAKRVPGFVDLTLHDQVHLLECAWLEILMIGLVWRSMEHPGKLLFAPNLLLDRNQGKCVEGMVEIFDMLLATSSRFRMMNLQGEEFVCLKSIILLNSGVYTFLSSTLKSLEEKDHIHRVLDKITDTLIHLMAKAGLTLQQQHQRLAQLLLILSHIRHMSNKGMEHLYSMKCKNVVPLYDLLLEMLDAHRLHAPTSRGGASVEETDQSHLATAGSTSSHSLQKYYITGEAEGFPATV
MCF7 cells (ATCC, HTB-22) were cultured in DMEM (Gibco, 11995-065) complete medium containing 10% fetal bovine serum. On the first day of the experiment, MCF7 cells were inoculated in a 384-well plate at a density of 3000 cells/well using the complete medium, and cultured in a 37° C., 5% CO2 cell incubator. The compounds to be tested were dissolved in DMSO with a stock concentration of 10 mM, the solution was diluted with Echo 550 (Labcyte Inc.) and added to the cell culture plate. Each compound with the starting concentration for treatment of 100 nM was subjected to 3-fold gradient dilution with 9 concentration points. A blank control containing 0.5% DMSO was set, and double replicate wells as controls were set at each concentration point. The culture was cultured in a 37° C., 5% CO2 cell incubator for 24 hours. Paraformaldehyde was added to the cell culture medium in each cell culture well, and the final concentration of paraformaldehyde was about 3.7% to fix the cells. After the mixture was reacted for 30 minutes, the supernatant was discarded, and 50 µL of PBS was added to each well for washing once. The cells were treated with PBS containing 0.5% v/v Tween-20 for 30 minutes, and washed with PBS once. A blocking solution (PBS containing 5% BSA, 0.05% Tween-20) was added, and the mixture was incubated at room temperature for 1 hour. The blocking solution was removed, a mixture solution of primary antibodies (anti-ER mAb, Estrogen Receptor α (D8H8) Rabbit mAb, GST, # 8644S, 1 : 1000 dilution; anti-GAPDH mAb, GAPDH(D4C6R) Mouse mAb, GST, #97166S, 1 : 2000 dilution) was added, and the mixture was incubated at room temperature for 3 hours. The culture was washed with PBST (PBS containing 0.05% Tween-20) 3 times. Secondary antibodies for detection (800CW-goat anti-rabbit IgG, LI-COR, P/N: 926-32211, 1 : 1000 dilution; 680RD-goat anti-mouse IgG, LI-COR, #925-68070, 1 : 1000 dilution) were added, and the mixture was incubated at room temperature and in the dark for 45 minutes. After washing with PBST 3 times, the fluorescence signal of each well was read using Odyssey CLx, and the value of Chanel 800 (ER)/Chanel 680 (GAPDH) was calculated. The wells treated with 0.1 µM fulvestrant were used as the 100% degradation control, and the degradation rate at each concentration point was calculated. The data were analyzed and processed by XlLfit, and the degradation activity DC50 and the maximum degradation rate Imax of each compound were calculated.

Here are results for three compounds from patent US20230348459A1, “PYRROLIDINE COMPOUND AND USE THEREOF” (SIMCERE PHARMACEUTICAL CO., LTD., priority 2020, published 2023).

A word on the IC50: it is the concentration that inhibits the measured activity by half. Low values mean inhibition by little substance, high ones a need for much substance. The DC50 is the concentration at which degradation of the target reaches its halfway point.

Chain of CYP2C9 (P11712 whole entry): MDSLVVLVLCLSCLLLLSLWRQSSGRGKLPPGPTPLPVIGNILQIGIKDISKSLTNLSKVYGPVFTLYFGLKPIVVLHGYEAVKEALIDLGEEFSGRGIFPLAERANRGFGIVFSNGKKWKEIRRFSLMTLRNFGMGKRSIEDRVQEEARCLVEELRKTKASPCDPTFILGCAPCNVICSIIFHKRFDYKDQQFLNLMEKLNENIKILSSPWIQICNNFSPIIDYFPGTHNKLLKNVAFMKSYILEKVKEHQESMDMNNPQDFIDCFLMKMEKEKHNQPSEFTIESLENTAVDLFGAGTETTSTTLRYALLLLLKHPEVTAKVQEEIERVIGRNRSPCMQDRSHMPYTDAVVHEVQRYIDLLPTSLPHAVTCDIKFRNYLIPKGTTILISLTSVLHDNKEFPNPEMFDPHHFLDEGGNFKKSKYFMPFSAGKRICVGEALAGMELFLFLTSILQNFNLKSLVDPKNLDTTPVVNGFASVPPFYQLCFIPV
Chain of CYP2D6 (P10635 whole entry): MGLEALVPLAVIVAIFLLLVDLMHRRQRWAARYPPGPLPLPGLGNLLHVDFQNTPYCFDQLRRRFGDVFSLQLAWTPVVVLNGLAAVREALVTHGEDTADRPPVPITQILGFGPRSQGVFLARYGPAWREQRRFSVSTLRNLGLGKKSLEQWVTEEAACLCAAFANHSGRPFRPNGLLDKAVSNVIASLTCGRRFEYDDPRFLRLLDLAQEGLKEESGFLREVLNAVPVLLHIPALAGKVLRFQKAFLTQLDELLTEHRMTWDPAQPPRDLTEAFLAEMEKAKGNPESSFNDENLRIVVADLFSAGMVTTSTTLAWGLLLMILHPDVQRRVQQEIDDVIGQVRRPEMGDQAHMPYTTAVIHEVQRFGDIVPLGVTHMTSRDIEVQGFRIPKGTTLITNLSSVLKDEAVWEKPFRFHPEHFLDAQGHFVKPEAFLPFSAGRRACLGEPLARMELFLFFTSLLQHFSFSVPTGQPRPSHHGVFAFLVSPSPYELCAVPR

For the compound `C[C@@H]1Cc2c([nH]c3ccccc23)C(c2c(F)cc(N[C@H]3CCN(CCCF)C3)cc2F)N1CC(F)(F)F` (stereo in doubt) [Example 4, (S)-N-(3,5-difluoro-4-((1S,3R)-3-methyl-2-(2,2,2-trifluoroethyl)-2,3,4,9-tetrahydro-1H-pyridino[3,4-b]indol-1-yl)phenyl)-1-(3-fluoropropyl)pyrrolidin-3-amine], inhibition in series [1] was half-maximal at 20 µM (IC50). The IC50 in series [2] was found to be 27 µM. Moreover, in series [3], the DC50 was 0.04 nM and the Dmax stood at 99%.
Turning to `C[C@@H]1Cc2c([nH]c3ccccc23)C(c2c(F)cc(N[C@H]3CCN(CCCF)C3)cc2F)N1CC(F)(F)CO` (stereo in doubt) [Example 7, 3-((1S,3R)-1-(2,6-difluoro-4-(((S)-1-(3-fluoropropyl)pyrrolidin-3-yl)amino)phenyl)-3-methyl-3,4-dihydro-1H-pyridino [3,4-b]indole-2(9H)-yl)-2,2-difluoropropane-1-ol], the results for the IC50 in series [1] and in series [2] were 8 µM and 23 µM, respectively. Also, in series [3], the DC50 was determined as 0.06 nM.
`C[C@@H]1Cc2c([nH]c3ccccc23)[C@@H](c2ccc(N[C@H]3CCN(CCCF)C3)cn2)N1CC(F)(F)F` [Example 3, N-((S)-1-(3-fluoropropyl)pyrrolidin-3-yl)-6-((1S,3R)-3-methyl-2-(2,2,2-trifluoroethyl)-2,3,4,9-tetrahydro-1H-pyridino[3,4-b]indol-1-yl)pyridine-3-amine] displayed an IC50 in series [1] greater than 30 µM. This compound yielded an IC50 in series [2] greater than 30 µM. In addition, in series [3], the DC50 was 0.15 nM and the Dmax is 104%.
